Source: patent publication US20200289482A1, “CYSTIC FIBROSIS TRANSMEMBRANE CONDUCTANCE REGULATOR MODULATORS FOR TREATING AUTOSOMAL DOMINANT POLYCYSTIC KIDNEY DISEASE” (The Johns Hopkins University, priority 2017, published 2020)

Legend:
Type in all cases: cell-based, mouse
[1] = test system: cAMP in PN cells; experiment: Cyclic AMP enzyme immunoassay in cells; conditions: for increase of cAMP activity in PN cells: treating PN cells with forskolin or IBMX
Protocol: FIG. 4A, FIG. 4B, FIG. 4C, FIG. 4D, and FIG. 4E show (FIG. 4A-FIG. 4B) cAMP levels are reduced by VX-809. (FIG. 4A) cAMP levels in mouse tissue were reduced by VX-809. The kidney samples (n=6) analyzed were taken from those depicted in FIG. 1. (FIG. 4B) Confluent PN and PH cells were treated with VX-809 (10 μM) or DMSO for 16 h and then treated with forskolin (100 μM) for 30 min before the cells were harvested for the assay. Columns represent means±SEM. Statistical analysis was performed using a two-tailed Student's t-test. Each set of data is from three individual wells; Note that resting cAMP is greater in PN vs PH cells as previously shown (25). Also note that forskolin caused a large increase in cAMP. A smaller increase occurred with IBMX. However, the increase induced by forskolin alone was similar to that by IBMX plus forskolin. […] (FIG. 4C, FIG. 4D, and FIG. 4E) Adenylyl cyclase expression. (FIG. 4C) Western blot showing the expression of adenylyl cyclase (AC) 6 and AC3 in treated and control PN cells. (FIG. 4D-FIG. 4E) Columns represent means±SEM of the AC3 and AC6 expression. The data were analyzed by non-parametric t-test. The experiment was repeated four times. For all graphs, *P<0.05, **P<0.01, and ***P<0.001;
It has been shown previously in both animal and cell culture models of ADPKD that cells lacking functional PC1 have elevated cAMP levels when compared to normal (24). To assess the effect of CFTR correctors, cAMP activity was measured in PC1 conditional knockout mouse kidneys and in PN cells that were either left untreated or treated with VX-809. […] Cells were treated with forskolin, which increased cAMP levels drastically (FIG. 4B). […] Treating PN cells with forskolin or IBMX (FIG. 4B) increased the cAMP activity by ˜10-fold.
Confluent cells were treated with VX-809 (10 μM) or DMSO for 16 h before being harvested for assay. Cyclic AMP levels were measured with a direct cAMP Enzyme Immunoassay Kit (Sigma, # CA200) according to the manufacturer's protocol. The results are expressed as pmole/ml. Statistical analysis was performed using a two-tailed Student's t-test.

[2] = test system: Hsp27; experiment: Cycloheximide chase, disappearance of Hsp27 in PN cells; conditions: cycloheximide 25 μM, 8 h
Protocol: (§1) FIG. 9A, FIG. 9B, FIG. 9C, FIG. 9D, FIG. 9E, FIG. 9F, FIG. 9G, and FIG. 9H show Hsp27, HSp70, and Hsp90 expression in PN cells treated with VX-809 and/or cycloheximide. (A) Pkd1 null (PN) cells were treated with VX-809 (10 μM) and/or with cycloheximide (25 μM) for indicated time points before being harvested for the assay. (FIG. 9A) Western blot showing expression of Hsp27, Hsp70, and Hsp90 in VX-809-(16 h), cycloheximide-treated, or control PN cells. ((FIG. 9B. (FIG. 9C, and (FIG. 9D) Columns represent averages±standard errors of Hsp27, Hsp70, and Hsp90 expression in cells treated with VX-809 and/or cycloheximide. ((FIG. 9E) Western blot showing expression of Hsp27, Hsp70, and Hsp90 in PN cells treated with VX-809+cycloheximide or control PN cells. ((FIG. 9F, (FIG. 9G, and (FIG. 9H) Columns represent averages±standard errors of Hsp27, Hsp70, and Hsp90 expression in cells treated only with cycloheximide or in control PN cells. Data were analyzed by non-parametric t-test. The experiments were repeated 3-5 times. *P<0.05, **P<0.01;
(§2) To gain more insight into the mechanism whereby VX-809 alters Hsp protein levels, translation was inhibited by using cycloheximide (35) and the disappearance of the three Hsps was monitored. […] Hsp 90 was reduced by approximately 25%, and Hsp27 was unchanged.

[3] = test system: Hsp70; experiment: Cycloheximide chase, disappearance of Hsp70 in PN cells; conditions: cycloheximide 25 μM, 8 h
Protocol: as §1, §2

[4] = test system: Hsp90; experiment: Cycloheximide chase, disappearance of Hsp90 in PN cells; conditions: cycloheximide 25 μM, 8 h
Protocol: as §1, §2

Row | Compound | increase of cAMP activity in PN cells [1] [fold] | forskolin elevates cAMP activity ([1]; as restated at the end of Example 4) [fold] | steady-state level of Hsp27 after cycloheximide alone [2] | steady-state level of Hsp70 after cycloheximide alone [3] | steady-state level of Hsp90 after cycloheximide alone [4]
1 | CC(C)Cn1c(=O)n(C)c(=O)c2[nH]cnc21 [IBMX, 3-isobutyl-1-methylxanthine] | ~10 | – | – | – | –
2 | C=C[C@@]1(C)CC(=O)[C@]2(O)[C@@]3(C)[C@@H](O)CCC(C)(C)[C@@H]3[C@H](O)[C@H](OC(C)=O)[C@@]2(C)O1 [forskolin] | ~10 | ~500 | – | – | –
3 | C[C@@H]1C[C@@H]([C@H](O)CC2CC(=O)NC(=O)C2)C(=O)[C@@H](C)C1 [cycloheximide] | – | – | unchanged over the 8 h | unchanged over the 8 h | unchanged over the 8 h
